Test systems include HCT-15 colon; HT29 colon; LOX IMVI melanoma; KM20L2 colon; RPMI-8226 leukemia; XF 498 CNS; DMS 114 small cell lung; 786-0 renal; DLD-1 colon; M19-MEL melanoma; LXFL 529 NSCLC; DMS 273 small cell lung; HOP-18 NSCLC; SNB-78 CNS; MDA-N.
What all share (assay): DTP human tumour cell line panel, 48 h

As usually defined, the TGI is the concentration giving total growth inhibition. Read a high TGI as lower sensitivity of the cells.

Where “and” joins values, the source holds several entries; their conditions need not be identical. Identical values can stand only once.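 Assay format: 96-well plates, 48-hour exposure. TGI is the concentration that stops growth completely.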 Where a SMILES comes first, the peptide text is derived from it. [ ]: non-standard residue; d: D form. The star is where a group is joined. ξ: configuration not given here. NMeF = CN[C@@H](Cc1ccccc1)C(=O)O; ξNMeV = CNC(C(=O)O)C(C)C; Boc = CC(C)(C)OC(=O)*; OBn = c1ccc(CO*)cc1

Turning to `CC(C)C(C(=O)N1CCC[C@@H]1C(=O)OCc1ccccc1)N(C)C(=O)C(C(C)C)N(C)C(=O)[C@H](Cc1ccccc1)N(C)C(=O)[C@H](NC(=O)OC(C)(C)C)C(C)C` (stereo partly specified) (Boc-[dV][NMeF][ξNMeV][ξNMeV][dP]-OBn), the TGI in the assay on HCT-15 colon, in the assay on HT29 colon, in the assay on LOX IMVI melanoma, with KM20L2 colon, in the assay on RPMI-8226 leukemia and with XF 498 CNS was greater than 100 µM in each case. The TGI in the assay with DMS 114 small cell lung, in the assay on 786-0 renal, in the assay on DLD-1 colon, in the assay on M19-MEL melanoma, in the assay with LXFL 529 NSCLC and in the assay with DMS 273 small cell lung was greater than 100 µM in each case. For the same compound, the TGI in the assay on HOP-18 NSCLC and in the assay on SNB-78 CNS was greater than 100 µM in each case.
For `O=C1C2CCC(C2)C12CC1(c3ccccc3)C(=O)c3ccccc3N1O2` (stereo unspecified), the TGI in the assay with HCT-15 colon, in the assay with HT29 colon, with KM20L2 colon, with RPMI-8226 leukemia, with XF 498 CNS and in the assay on DMS 114 small cell lung was greater than 100 µM in each case. The TGI in the assay on 786-0 renal, in the assay on DLD-1 colon, with M19-MEL melanoma, with LXFL 529 NSCLC, with DMS 273 small cell lung and with HOP-18 NSCLC was greater than 100 µM in each case. Also, in the assay with SNB-78 CNS, the TGI is greater than 100 µM.
For the compound `CC(C)c1cccc(C(C)C)c1NC(=O)C(=O)C(C(=O)c1ccc2ccccc2c1)C1OC(=O)c2ccccc21` (stereo unspecified), the TGI with HCT-15 colon, in the assay with HT29 colon, with LOX IMVI melanoma, with RPMI-8226 leukemia, with DMS 114 small cell lung and with 786-0 renal was greater than 100 µM in each case. Besides, the TGI in the assay on DLD-1 colon, in the assay with M19-MEL melanoma, with LXFL 529 NSCLC and in the assay with SNB-78 CNS was greater than 100 µM throughout.
Take `CC(=O)OC1CC2(c3ccccc3)C(=O)c3ccccc3N2O1` (stereo unspecified): the TGI in the assay on HCT-15 colon, in the assay on HT29 colon, in the assay on KM20L2 colon, in the assay on RPMI-8226 leukemia, with XF 498 CNS and in the assay on DMS 114 small cell lung was greater than 100 µM each time. For the same compound, the TGI with 786-0 renal, in the assay with DLD-1 colon, in the assay with M19-MEL melanoma, with LXFL 529 NSCLC, with DMS 273 small cell lung and in the assay with HOP-18 NSCLC was greater than 100 µM in each case. This compound also showed a TGI in the assay with SNB-78 CNS greater than 100 µM.
As to `CCOc1ccc(N=Nc2ccc3oc(=O)c(C(=O)Nc4ccc(OC)cc4)cc3c2)cc1`, the TGI in the assay on HCT-15 colon was greater than 100 µM; in the assay with HT29 colon it was greater than 100 µM; in the assay with LOX IMVI melanoma, 55.6 µM; in the assay on KM20L2 colon, greater than 100 µM; in the assay on RPMI-8226 leukemia it was greater than 100 µM; in the assay with 786-0 renal, 93.9 µM. The TGI was 61.4 µM with DLD-1 colon; 91.7 µM in the assay on M19-MEL melanoma; greater than 100 µM with LXFL 529 NSCLC; greater than 100 µM in the assay on DMS 273 small cell lung; 82.8 µM in the assay with SNB-78 CNS.
Consider `CC(C)C(=O)/C=C/c1ccc(Cl)cc1`, for which the TGI is 31.7 µM in the assay with HT29 colon; 22.2 µM with LOX IMVI melanoma; greater than 100 µM with KM20L2 colon; 67.2 µM with RPMI-8226 leukemia; 20.5 µM with XF 498 CNS; 39.8 µM in the assay on DMS 114 small cell lung. Besides, the TGI in the assay with 786-0 renal stood at 23.1 µM; in the assay on DLD-1 colon, 32.2 µM; in the assay on M19-MEL melanoma, 29.6 µM; with LXFL 529 NSCLC, 30.4 µM; with DMS 273 small cell lung it was 14 µM; in the assay on HOP-18 NSCLC, 13.8 µM.
As for `O=C(N/N=C1/C(=O)c2c3ccccc3cc3cccc1c23)c1cccc(Cl)c1`, the TGI in the assay on HCT-15 colon, with HT29 colon, in the assay with LOX IMVI melanoma, with MDA-N, in the assay on RPMI-8226 leukemia and in the assay on 786-0 renal was greater than 100 µM throughout.
For `O=C(Nc1ccccc1C(=O)O)/C(=C/c1ccccc1)NC(=O)c1ccccc1`, the TGI with HCT-15 colon, with HT29 colon, in the assay with LOX IMVI melanoma, with MDA-N, in the assay with RPMI-8226 leukemia and with 786-0 renal was greater than 100 µM each time.
On to `CC(C)[Si](OC1=C(C(=O)N(C)c2ccccc2Cl)CCC1)(C(C)C)C(C)C`, for which the TGI amounted to 30.6 µM in the assay with HCT-15 colon; 29 µM with HT29 colon; 33.7 µM in the assay with LOX IMVI melanoma; 38.8 µM in the assay with MDA-N; 49.6 µM with RPMI-8226 leukemia; 48.9 µM with 786-0 renal.
Take `Cc1nc2ccccc2c(=O)n1NC(=O)c1ccccc1O`: the TGI in the assay with HCT-15 colon, in the assay with HT29 colon, in the assay on LOX IMVI melanoma, in the assay with MDA-N, in the assay on RPMI-8226 leukemia and in the assay with 786-0 renal was greater than 100 µM each time.
As for `COc1ccccc1S(=O)Nc1ccccc1` (stereo unspecified), the concentration for total growth inhibition (TGI) in the assay with HCT-15 colon, with HT29 colon, in the assay on LOX IMVI melanoma, in the assay with MDA-N, with RPMI-8226 leukemia and in the assay on 786-0 renal was greater than 100 µM each time.
For `O=c1cc(-c2ccccc2)oc2ccc(Oc3nnnn3-c3ccccc3)cc12`, the TGI in the assay on HCT-15 colon, with HT29 colon, with LOX IMVI melanoma, in the assay with MDA-N, in the assay on RPMI-8226 leukemia and in the assay on 786-0 renal was greater than 100 µM each time.
Turning to `COc1ccc(-n2c(C)nc3ccc(NC4OCC(O)C(O)C4O)cc3c2=O)cc1` (stereo unspecified), the TGI was 65.8 µM and 80.8 µM in the assay on HCT-15 colon; 68.5 µM and 80.2 µM in the assay on HT29 colon; 42.6 µM and 50.8 µM with LOX IMVI melanoma; greater than 100 µM in the assay with MDA-N; 49.4 µM and 61.6 µM in the assay on RPMI-8226 leukemia; greater than 100 µM with 786-0 renal.
`CC1OC(OC2C(O)COC(OC3C(C)OC(OC4C(OC(=O)[C@]56CCC(C)(C)C[C@@H]5C5=CCC7[C@@]8(C)C[C@H](O)[C@H](OC9OC(CO)C(O)C(OC%10OC(CO)C(O)C(O)C%10O)C9O)[C@@](C)(CO)[C@@H]8CC[C@@]7(C)[C@]5(C)CC6)OCC(O)C4O)C(O)C3OC3OCC(O)C(O)C3O)C2O)C(O)C(O)C1O` (stereo partly specified): the TGI in the assay with HCT-15 colon came out at 28.2 µM; with HT29 colon it was 33.9 µM; in the assay on LOX IMVI melanoma it was 29.6 µM; in the assay on MDA-N, 7.24 µM; in the assay with RPMI-8226 leukemia it was 76.8 µM; with 786-0 renal it was 17.7 µM.

Source of the values: PubChem BioAssay (NCI).
